{"source": "patent US7659246B2", "about": "“Treatment of osteoarthritis” (Promics Pty Limited, priority 2002, dated 2010)", "key": {"osteoarthritis [1]": {"tested_on": "osteoarthritis", "experiment": "Clinical trial of PMX53 in arthritic dogs", "assay_type": "in vivo, dog", "conditions": "dogs with osteoarthritis; sc injection"}, "[2]": {"tested_on": "antigen-induced arthritis of the knee joint", "experiment": "Rat monoarticular antigen-induced arthritis", "assay_type": "in vivo", "description": "Female Wistar rats (150-250 g) were obtained from the Central Animal Breeding House, University of Queensland. […] Each rat received a subcutaneous injection of this suspension (0.5 mL) on days 1 and 7. On day 12-28, rats were separated into separate cages, and body weight and food and water intake monitored daily. Rats received either ordinary tap water or drinking water containing AcF-[OPdChaWR] (1). […] On day 14, rats were anaesthetised and their hind limbs shaven. […] Rats were euthanased on day 28, and whole blood collected into an Eppendorf tube and allowed to spontaneously clot on ice. Blood samples were centrifuges (11,000 rpm×3 min) and serum collected and stored at −20° C. until analysis of serum cytokines using an ELISA. Each knee capsule was lavaged with 100 μL saline, and the total cell count determined using a haemocytometer. In addition, an aliquot of the knee joint lavage fluid was dropped onto a glass slide, and allowed to air dry. Once dry, cells were stained with a differential stain (Diff Quick) and a differential cell count was performed using a 40× dry lens microscope. The remaining lavage fluids from each joint were stored at −20° C. until later analysis of intra-articular cytokine levels using an ELISA. Each knee joint was severed, trimmed leaving only the area of interest and the skin was split with a scalpel blade. Knee samples were stored in 10% buffered formalin for >10 d. Knees were then rinsed with distilled water and placed in a saturated solution of EDTA solution for 21 d for decalcification before being embedded in paraffin wax. Knee tissue samples were prepared using standard histological techniques as described in Example 1, and stained using an haematoxylin and eosin stain. Histological slides were analysed in a blind fashion. […] In no samples was there evidence of significant bone erosion. Samples were thawed on the day of ELISA analysis, and serum or intra-articular lavage fluid TNFα and IL-6 concentrations were determined from a standard curve, using an ELISA as described in Example 1."}, "dermal Arthus reaction": {"tested_on": "dermal Arthus reaction", "experiment": "Reverse passive dermal Arthus reaction in the rat", "assay_type": "in vivo", "conditions": "intravenous, oral and topical pretreatment"}, "osteoarthritis [3]": {"tested_on": "osteoarthritis", "experiment": "Clinical trial of PMX53 in arthritic dogs", "assay_type": "in vivo, dog", "text": "A single oral dose of the drug appears to be effective for at least 3-4 days, even in the most severe case. […] The individual cases are listed below."}, "induced osteoarthritis": {"tested_on": "induced osteoarthritis", "experiment": "Induced osteoarthritis in dogs (cruciate ligament transection)", "assay_type": "in vivo, dog", "description": "Four healthy dogs were obtained from a group of pound dogs destined for euthanasia. The dogs were acclimatised to the experimental canine ward for 7 days before the experiment commenced. Dogs were housed individually and fed on a mixture of dry dog food, canned dog food and occasional raw bones. They were walked for 10 minutes twice daily throughout the trial. The dogs were of age and sex as follows:\nPMX53 was synthesised by the Institute of Molecular Bioscience at the University of Queensland. The drug was dissolved in 30% polyethylene glycol 400 (PEG 400) in normal saline. The solution was made to a concentration of 3 mg/ml. The placebo vehicle was 30% PEG 400 in saline. All treatments were sterilised by filtration and stored at 4° C. The dogs were given the drug or placebo at a dose rate of 1 ml/10 kg body weight. The treatments were assigned to the dogs in a random fashion. The drug containers were marked so that the attendants who scored the gait were unaware of the treatment given to each dog.\nThe cruciate ligament of the left stifle (knee) joint was transected surgically by an experienced specialist surgeon. The incision in the skin was approximately 2 centimeters long. The dogs were given postoperative pain relief, including epidural analgesia and opioids. At 24 hours after the surgery all dogs were limping. No supplementary analgesic therapy was deemed necessary after day 1. All dogs tolerated the procedure very well.\nThe drug was given as a subcutaneous injection (0.3 mg/kg) into the loose skin on the dorsum of the neck once daily. […] Dogs were assessed twice daily for lameness while they were walked. The scoring was done by at least two people."}, "[4]": {"conditions": "dogs, day 28, compared to arthritic controls, FIG. 7"}}, "data": [{"smiles": "CC(=O)N[C@@H](Cc1ccccc1)C(=O)N[C@H]1CCCNC(=O)[C@H](CCCNC(=N)N)NC(=O)[C@H](Cc2c[nH]c3ccccc23)NC(=O)[C@@H](CC2CCCCC2)NC(=O)[C@@H]2CCCN2C1=O", "note": "[PMX53, AcF-[OPdChaWR]]", "values": [{"measurement": "duration of effects of one injection", "setting": "osteoarthritis [1]", "result": "last for weeks"}, {"measurement": "right knee joint IL-6 level in joint lavage", "setting": "[2]; FIG. 5", "result": "inhibition"}, {"measurement": "right knee joint TNFα level in joint lavage", "setting": "[2]; FIG. 5", "result": "inhibition"}, {"measurement": "arthritic right knee joint swelling", "setting": "[2]; given orally on Days -2 to +14, FIG. 4", "result": "inhibition of arthritic right knee joint swelling"}, {"measurement": "rise in circulating TNFα associated with a dermal Arthus reaction", "setting": "dermal Arthus reaction; rat serum, FIG. 2", "result": "inhibition of the rise in circulating TNFα"}, {"measurement": "vascular leakage associated with a dermal Arthus reaction", "setting": "dermal Arthus reaction; rat, Evans blue absorbance at 650 nm, FIG. 1", "result": "inhibition of the vascular leakage"}, {"measurement": "joint pain on manipulation", "setting": "osteoarthritis [3]; Case #1", "result": "no joint pain on manipulation"}, {"measurement": "morning stiffness", "setting": "osteoarthritis [3]; Case #1", "result": "no morning stiffness"}, {"measurement": "range of joint movement", "setting": "osteoarthritis [3]; Case #1", "result": "not improved"}, {"measurement": "time to very noticeable improvement after injection", "setting": "osteoarthritis [3]; Case #1, 0.3 mg/kg subcutaneously", "result": "≤ 24", "unit": "h"}, {"measurement": "improvement after treatment", "setting": "osteoarthritis [3]; Case #1, 1 mg/kg oral once daily, then 0.3 mg/kg sc once daily", "result": "marked"}, {"measurement": "side effects", "setting": "osteoarthritis [3]; Case #1, injections for 12 months", "result": "no apparent side effects"}, {"measurement": "attitude (owner report)", "setting": "osteoarthritis [3]; Case #2", "result": "noticeable improvement in attitude"}, {"measurement": "lameness", "setting": "osteoarthritis [3]; Case #2, 1 mg/kg orally 4 weeks, then 0.3 mg/kg sc once daily", "result": "did not improve"}, {"measurement": "response to therapy", "setting": "osteoarthritis [3]; Case #3, 1 mg/kg per day orally, then 0.3 mg/kg sc as required, no NSAIDs", "result": "responded very well"}, {"measurement": "side effects", "setting": "osteoarthritis [3]; Case #3, after 9 months of treatment", "result": "no side effects"}, {"measurement": "control of clinical signs", "setting": "osteoarthritis [3]; Case #4 (rheumatoid arthritis), 0.3 mg/kg SC once a week alone", "result": "did not completely control the clinical signs"}, {"measurement": "clinical result in combination with prednisolone", "setting": "osteoarthritis [3]; Case #4, PMX53 once a week with prednisolone 2.5 mg PO once every second day", "result": "excellent results"}, {"measurement": "duration of effect of a single oral dose", "setting": "osteoarthritis [3]; dogs with osteoarthritis, oral", "result": "3 to 4", "unit": "days"}, {"measurement": "side effects", "setting": "osteoarthritis [3]; dogs, up to 12 months treatment", "result": "No side effects"}, {"measurement": "cartilage erosion", "setting": "induced osteoarthritis; dog #2 (drug treated), also seen in placebo dog #4, day 28", "result": "mild cartilage erosion"}, {"measurement": "time of treatment to improvement in the degree of lameness", "setting": "induced osteoarthritis; dogs n=2, 0.3 mg/kg sc once daily, placebo 10-13 days, FIG. 6b", "result": "4 to 6", "unit": "days"}, {"measurement": "clinical impression of ability to walk", "setting": "induced osteoarthritis; dogs, 0.3 mg/kg sc once daily", "result": "clearly improved the ability of the dogs to walk"}, {"measurement": "gait at the end of the trial", "setting": "induced osteoarthritis; dogs, 0.3 mg/kg sc once daily, day 28", "result": "relatively sound"}, {"measurement": "blood biochemistry and haematology", "setting": "induced osteoarthritis; dogs, before surgery and at day 28", "result": "No abnormalities were detected"}, {"measurement": "fibrosis of the joint (histopathology)", "setting": "induced osteoarthritis; [4]", "result": "reduced fibrosis"}, {"measurement": "thickening of the synovial membrane (histopathology)", "setting": "induced osteoarthritis; [4]", "result": "reduced thickening of the synovial membrane"}, {"measurement": "discomfort when injected", "setting": "induced osteoarthritis; dogs, sc in 30% PEG 400 in saline, drug and placebo alike", "result": "mild discomfort"}, {"measurement": "site of injection at post mortem", "setting": "induced osteoarthritis; dogs, sc, dorsum of the neck, day 28", "result": "no abnormalities"}, {"measurement": "recovery from surgery", "setting": "induced osteoarthritis; dogs, versus placebo-treated dogs", "result": "recovered from surgery more rapidly"}]}]}
